From the supplement of paper PMC10307832

Assays:
Test in all cases: relative viability (nuclei count vs DMSO), 5 days (fraction); higher = more cells survive
[1] = compound: Cn1cc(-c2cnn3c(N)c(Br)c([C@@H]4CCCNC4)nc23)cn1 + N=C(N)NC(=N)NCCc1ccccc1 [Phenformin] (partner 250 µM)
Summary of the method: (§1)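 Lung cancer cell lines, seeded in 1536-well plates, were treated the following day by pin tool with a single drug or with five library-drug doses (not always all listed) in √10 steps on top of a fixed anchor-drug dose. Cells were fixed and nuclei stained in one step after 5 days, and nuclei were counted. Relative viability is the nuclei count for treated wells divided by that for vehicle wells, reported as medians of duplicate plates.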

[2] = compound: Cn1cc(-c2cnn3c(N)c(Br)c([C@@H]4CCCNC4)nc23)cn1 + O=C(c1cc(Cc2n[nH]c(=O)c3ccccc23)ccc1F)N1CCN(C(=O)C2CC2)CC1 [Olaparib] (partner 8 µM)
Summary of the method: as §1

[3] = compound: Cn1cc(-c2cnn3c(N)c(Br)c([C@@H]4CCCNC4)nc23)cn1 + CC(=O)Nc1cccc(-n2c(=O)n(C3CC3)c(=O)c3c(Nc4ccc(I)cc4F)n(C)c(=O)c(C)c32)c1 [Trametinib] (partner 0.02 µM)
Summary of the method: as §1

[4] = compound: Cn1cc(-c2cnn3c(N)c(Br)c([C@@H]4CCCNC4)nc23)cn1
Summary of the method: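 Lung cancer cell lines in 1536-well plates were kept overnight at 37 °C, then pinned with five library-drug doses (not always all listed) spaced by √10 on vehicle-anchored plates. After 5 days without medium change, cells were fixed, permeabilised and Hoechst-stained in one step, imaged at 4×, and nuclei were counted with MetaXpress. Viability is treated-well nuclei divided by vehicle-well nuclei, taken as the median over plates. Plates passed only with control CV below 25% and at least one doubling.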

| Cell Line | relative viability ([1]; first compound 0.05 µM) | relative viability ([1]; first compound 0.1581 µM) | relative viability ([1]; first compound 0.5 µM) | relative viability ([1]; first compound 1.581 µM) | relative viability ([1]; first compound 5 µM) | relative viability ([2]; first compound 0.05 µM) | relative viability ([2]; first compound 0.1581 µM) | relative viability ([2]; first compound 0.5 µM) | relative viability ([2]; first compound 1.581 µM) | relative viability ([2]; first compound 5 µM) | relative viability ([3]; first compound 0.05 µM) | relative viability ([3]; first compound 0.1581 µM) | relative viability ([3]; first compound 0.5 µM) | relative viability ([3]; first compound 1.581 µM) | relative viability ([3]; first compound 5 µM) | relative viability ([4]; 0.05 µM) | relative viability ([4]; 0.1581 µM) | relative viability ([4]; 0.5 µM) | relative viability ([4]; 1.581 µM) | relative viability ([4]; 5 µM) |
| --- | --- | --- | --- | --- | --- | --- | --- | --- | --- | --- | --- | --- | --- | --- | --- | --- | --- | --- | --- | --- |
| NCI-H1437 | 0.272 | 0.296 | 0.32 | 0.214 | 0.229 | 0.664 | 0.726 | 0.71 | 0.646 | 0.595 | 0.504 | 0.611 | 0.562 | 0.428 | 0.355 | 1.02 | 1.11 | 1.06 | 0.847 | 0.832 |
| NCI-H2085 | 0.692 | 0.746 | 0.737 | 0.626 | 0.516 | 0.813 | 0.849 | 0.776 | 0.762 | 0.752 | 0.532 | 0.664 | 0.548 | 0.484 | 0.287 | 0.996 | 1.12 | 1.04 | 0.932 | 0.853 |
| H3255 | 0.372 | 0.353 | 0.345 | 0.385 | 0.322 | 0.567 | 0.615 | 0.604 | 0.509 | 0.39 | 0.694 | 0.534 | 0.668 | 0.633 | 0.405 | 1.02 | 0.935 | 1.03 | 0.974 | 0.57 |
| NCI-H650 | 0.426 | 0.413 | 0.447 | 0.486 | 0.399 | 0.427 | 0.557 | 0.523 | 0.551 | 0.397 | 0.913 | 1.01 | 0.957 | 0.901 | 0.82 | 0.994 | 0.875 | 1.03 | 0.844 | 0.715 |
| LCLC-103H | 0.297 | 0.338 | 0.364 | 0.3 | 0.299 | 0.842 | 0.804 | 0.77 | 0.746 | 0.711 | 0.641 | 0.7 | 0.717 | 0.677 | 0.684 | 1.03 | 0.986 | 1.05 | 0.909 | 1.03 |
| LOU-NH91 | 0.668 | 0.657 | 0.679 | 0.706 | 0.562 | 0.938 | 0.933 | 0.867 | 0.774 | 0.778 | 0.804 | 0.776 | 0.751 | 0.749 | 0.665 | 0.949 | 0.985 | 0.937 | 0.952 | 0.811 |
| NCI-H1650 | – | 0.505 | 0.403 | 0.33 | 0.218 | 0.625 | 0.82 | 0.851 | 0.616 | 0.444 | 0.559 | 0.551 | 0.487 | 0.405 | 0.428 | 0.862 | 1.08 | 1.12 | 0.707 | 0.494 |
| NCI-H3122 | 0.374 | 0.62 | 0.383 | 0.366 | 0.383 | 0.647 | 0.674 | 0.598 | 0.635 | 0.563 | 0.267 | 0.236 | 0.212 | 0.223 | 0.257 | 1.03 | 1.03 | 1.03 | 1.06 | 1.1 |
| PC-3 [JPC-3] | 0.444 | 0.476 | 0.443 | 0.448 | 0.455 | 1.14 | 1.02 | – | 1.09 | 1.15 | 0.693 | 0.705 | – | 0.642 | 0.608 | 0.957 | 1.01 | 1.01 | 1.02 | 1.03 |
| NCI-H1651 | 0.331 | 0.336 | 0.318 | 0.223 | 0.173 | 0.17 | 0.146 | 0.166 | 0.164 | 0.145 | 0.885 | 0.925 | 0.88 | 0.857 | 0.461 | 1.01 | 0.993 | 0.917 | 0.783 | 0.503 |
| NCI-H2087 | 0.47 | 0.479 | 0.483 | 0.485 | 0.507 | 0.766 | 0.735 | 0.623 | 0.624 | 0.676 | 0.151 | 0.203 | 0.178 | 0.164 | 0.189 | 1.15 | 1.31 | 1.02 | 0.948 | 0.898 |
